In US9586951B2 (FUJIFILM Corporation, priority 2013, dated 2017):

target: T1, ATM (Homo sapiens, UniProt Q13315); experiment: ATM inhibition test (phosphorylation of Chk2 generated by ionizing radiation, AlphaScreen SureFire); assay type: cell-based; conditions: phosphorylated Chk2 in NCI-H460 cells, ionizing radiation 8Gy, 1 hour after test compound treatment; read-out: ATM inhibitory activity
T1 construct: detecting phosphorylation of Chk2 in a human non-small cell lung cancer cell line NCI-H460 (ATCC company); host or cells: NCI-H460 human non-small cell lung cancer cells
T1 sequence (Q13315 whole entry): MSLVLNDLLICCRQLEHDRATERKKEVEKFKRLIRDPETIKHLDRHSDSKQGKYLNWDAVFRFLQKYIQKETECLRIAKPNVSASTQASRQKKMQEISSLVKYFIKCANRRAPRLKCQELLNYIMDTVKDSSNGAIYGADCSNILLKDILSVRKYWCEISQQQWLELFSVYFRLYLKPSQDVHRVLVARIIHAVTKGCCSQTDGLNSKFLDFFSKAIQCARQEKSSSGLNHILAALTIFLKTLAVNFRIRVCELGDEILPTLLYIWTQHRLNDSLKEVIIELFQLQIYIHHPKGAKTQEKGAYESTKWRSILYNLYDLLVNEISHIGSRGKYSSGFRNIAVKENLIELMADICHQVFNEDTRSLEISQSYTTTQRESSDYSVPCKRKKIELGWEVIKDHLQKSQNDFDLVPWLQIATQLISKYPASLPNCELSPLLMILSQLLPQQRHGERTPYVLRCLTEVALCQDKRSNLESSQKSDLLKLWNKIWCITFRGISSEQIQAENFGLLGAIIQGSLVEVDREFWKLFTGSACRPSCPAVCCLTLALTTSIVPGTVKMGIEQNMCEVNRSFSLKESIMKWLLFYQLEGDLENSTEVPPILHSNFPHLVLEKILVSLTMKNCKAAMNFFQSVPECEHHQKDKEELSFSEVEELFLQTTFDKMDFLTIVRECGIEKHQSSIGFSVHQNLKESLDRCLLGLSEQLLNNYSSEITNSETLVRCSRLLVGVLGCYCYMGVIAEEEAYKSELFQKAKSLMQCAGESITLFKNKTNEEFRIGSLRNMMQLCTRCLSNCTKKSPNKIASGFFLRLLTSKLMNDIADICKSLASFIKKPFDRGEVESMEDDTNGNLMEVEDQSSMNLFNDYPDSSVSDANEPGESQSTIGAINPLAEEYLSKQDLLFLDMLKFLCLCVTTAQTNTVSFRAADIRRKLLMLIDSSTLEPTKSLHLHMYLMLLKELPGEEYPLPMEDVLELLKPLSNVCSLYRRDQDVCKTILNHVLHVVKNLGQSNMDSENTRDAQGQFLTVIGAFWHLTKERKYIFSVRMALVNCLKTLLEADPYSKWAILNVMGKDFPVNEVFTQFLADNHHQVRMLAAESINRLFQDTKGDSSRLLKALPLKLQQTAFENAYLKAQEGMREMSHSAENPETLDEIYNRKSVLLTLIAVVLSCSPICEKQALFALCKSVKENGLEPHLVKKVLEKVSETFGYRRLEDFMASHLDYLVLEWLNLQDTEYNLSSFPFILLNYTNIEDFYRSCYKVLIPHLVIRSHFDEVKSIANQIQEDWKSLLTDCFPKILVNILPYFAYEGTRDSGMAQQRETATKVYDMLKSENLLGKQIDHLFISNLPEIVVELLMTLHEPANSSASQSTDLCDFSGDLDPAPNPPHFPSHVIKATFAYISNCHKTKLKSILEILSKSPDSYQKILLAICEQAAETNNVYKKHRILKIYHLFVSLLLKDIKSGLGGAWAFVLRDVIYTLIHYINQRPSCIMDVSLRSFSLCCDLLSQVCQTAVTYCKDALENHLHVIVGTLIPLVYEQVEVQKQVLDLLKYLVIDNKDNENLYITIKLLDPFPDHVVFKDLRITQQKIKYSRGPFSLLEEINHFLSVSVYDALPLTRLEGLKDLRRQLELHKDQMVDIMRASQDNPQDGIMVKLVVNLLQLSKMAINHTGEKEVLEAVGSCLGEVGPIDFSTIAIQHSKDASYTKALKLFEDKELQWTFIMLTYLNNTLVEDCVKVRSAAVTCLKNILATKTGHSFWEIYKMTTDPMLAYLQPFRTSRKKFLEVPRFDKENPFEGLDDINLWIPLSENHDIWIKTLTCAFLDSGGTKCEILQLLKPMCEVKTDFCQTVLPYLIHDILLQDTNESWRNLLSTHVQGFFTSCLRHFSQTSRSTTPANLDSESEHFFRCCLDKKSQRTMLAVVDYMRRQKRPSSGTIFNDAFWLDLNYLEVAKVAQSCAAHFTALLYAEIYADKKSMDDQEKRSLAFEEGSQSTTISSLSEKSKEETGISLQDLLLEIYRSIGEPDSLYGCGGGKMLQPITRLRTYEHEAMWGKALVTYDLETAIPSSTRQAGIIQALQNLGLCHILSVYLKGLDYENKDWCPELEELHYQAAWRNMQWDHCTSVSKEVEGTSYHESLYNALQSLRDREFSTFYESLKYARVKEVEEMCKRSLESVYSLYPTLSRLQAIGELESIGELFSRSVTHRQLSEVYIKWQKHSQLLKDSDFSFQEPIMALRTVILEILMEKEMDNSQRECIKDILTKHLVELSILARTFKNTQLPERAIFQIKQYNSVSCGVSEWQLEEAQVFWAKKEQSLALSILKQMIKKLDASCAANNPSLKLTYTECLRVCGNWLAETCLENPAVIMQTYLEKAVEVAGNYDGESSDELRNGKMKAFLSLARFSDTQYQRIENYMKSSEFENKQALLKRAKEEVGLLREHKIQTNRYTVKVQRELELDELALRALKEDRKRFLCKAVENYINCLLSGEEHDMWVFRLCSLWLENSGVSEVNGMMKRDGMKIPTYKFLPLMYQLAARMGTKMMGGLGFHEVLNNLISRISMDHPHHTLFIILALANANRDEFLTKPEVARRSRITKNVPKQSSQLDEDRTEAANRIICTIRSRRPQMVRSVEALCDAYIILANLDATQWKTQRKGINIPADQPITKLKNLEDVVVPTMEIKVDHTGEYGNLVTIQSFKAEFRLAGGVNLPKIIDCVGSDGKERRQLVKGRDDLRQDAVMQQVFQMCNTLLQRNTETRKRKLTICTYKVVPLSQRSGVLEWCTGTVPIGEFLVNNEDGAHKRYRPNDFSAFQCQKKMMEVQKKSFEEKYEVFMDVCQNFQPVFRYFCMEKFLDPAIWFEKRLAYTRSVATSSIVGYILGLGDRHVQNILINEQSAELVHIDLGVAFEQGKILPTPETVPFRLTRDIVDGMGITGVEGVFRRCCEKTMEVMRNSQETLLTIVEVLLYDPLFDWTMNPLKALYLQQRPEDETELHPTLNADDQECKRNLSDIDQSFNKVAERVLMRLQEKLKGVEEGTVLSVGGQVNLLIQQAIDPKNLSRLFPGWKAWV
Summary of the method: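 Phosphorylated Chk2 read by AlphaScreen SureFire in human non-small cell lung cancer NCI-H460 cells, 1 hour after 8Gy ionizing radiation at 37° C. Compound added 1 hour before irradiation. Percent inhibition normalised between irradiated and non-irradiated drug-untreated signals.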

| Compound | IC50 [nM] |
| --- | --- |
| 6-(7-(((5-Methyl pyridin-2- yl)(1-methyl pyrrolidin-3-yl) methyl)amino)thianthren-1- yl)-4-morpholino pyridin-2 (1H)-one [Example 1-22-9] | < 100 |
| CC(CNc1ccc2c(c1)Sc1cccc(-c3cc(N4CCOCC4)cc(=O)[nH]3)c1S2)N1CCOCC1 (racemic) [Example 1-9-2-1, 4-Morpholino-6-(7-((2-morpholinopropyl)amino)thianthren-1-yl)pyridin-2(1H)-one] | < 100 |
| CC(CN1CCOCC1)Nc1ccc2c(c1)Sc1cccc(-c3cc(N4CCOCC4)cc(=O)[nH]3)c1S2 (racemic) [Example 1-13-2-1, 4-Morpholino-6-(7-((1-morpholinopropan-2-yl)amino)thianthren-1-yl)pyridin-2(1H)-one] | < 100 |
| CC(CN1CCN(C)CC1)Nc1ccc2c(c1)Sc1cccc(-c3cc(N4CCOCC4)cc(=O)[nH]3)c1S2 (racemic) [Example 1-13-3-1, 6-(7-((1-(4-Methylpiperazin-1-yl)propan-2-yl)amino)thianthren-1-yl)-4-morpholinopyridin-2(1H)-one] | < 100 |
| O=c1cc(N2CCOCC2)cc(-c2cccc3c2Sc2ccc(NC4CCCC4N4CCOCC4)cc2S3)[nH]1 (racemic) [Example 1-16-1-1, 4-morpholino-6-(7-((2-morpholinocyclopentyl)amino)thianthren-1-yl)pyridin-2(1H)-one] | < 100 |
| COc1ccc(CNc2ccc3c(c2)Sc2cccc(-c4cc(N5CCOCC5)cc(=O)[nH]4)c2O3)cn1 [Example 4-8-11, 6-(8-(((6-Methoxypyridin-3-yl)methyl)amino)phenoxathiin-4-yl)-4-morpholino pyridin-2(1H)-one] | 100 to 500 |
| O=c1cc(N2CCOCC2)cc(-c2cccc3c2Oc2ccc(NCc4ccnc(Cl)c4)cc2S3)[nH]1 [Example 4-8-14, 6-(8-(((2-Chloropyridin-4-yl)methyl)amino)phenoxathiin-4-yl)-4-morpholino pyridin-2(1H)-one] | 100 to 500 |
| O=C1CCN1c1cncc(CNc2ccc3c(c2)Sc2cccc(-c4cc(N5CCOCC5)cc(=O)[nH]4)c2O3)c1 [Example 4-8-16, 4-Morpholino-6-(8-(((5-(2-oxoazetidin-1-yl)pyridin-3-yl)methyl)amino)phenoxathiin-4-yl)pyridin-2 (IH)-one] | 100 to 500 |
| Nc1ncccc1CNc1ccc2c(c1)Sc1cccc(-c3cc(N4CCOCC4)cc(=O)[nH]3)c1O2 [Example 4-8-20, 6-(8-(((2-Aminopyridin-3-yl)methyl)amino)phenoxathiin-4-yl)-4-morpholino pyridin-2(1H)-one] | 500 to 2000 |
| CNc1ncccc1CNc1ccc2c(c1)Sc1cccc(-c3cc(N4CCOCC4)cc(=O)[nH]3)c1O2 [Example 4-8-21, 6-(8-(((2-(Methylamino)pyridin-3-yl)methyl)amino)phenoxathiin-4-yl)-4-morpholino pyridin-2(1H)-one] | 100 to 500 |
| CC(C)Nc1cncc(CNc2ccc3c(c2)Sc2cccc(-c4cc(N5CCOCC5)cc(=O)[nH]4)c2O3)c1 [Example 4-8-26] | 100 to 500 |
| O=c1cc(N2CCOCC2)cc(-c2cccc3c2Oc2ccc(NC4CCNCC4)cc2S3)[nH]1 [Example 4-9, 4-Morpholino-6-(8-(piperidin-4-ylamino)phenoxathiin-4-yl)pyridin-2(1H)-one] | 100 to 500 |
| O=c1cc(N2CCOCC2)cc(-c2cccc3c2Oc2ccc(NCCN4CCOCC4)cc2S3)[nH]1 [Example 4-11, 4-Morpholino-6-(8-((2-morpholinoethyl)amino)phenoxathiin-4-yl)pyridin-2(1H)-one] | 100 to 500 |
| O=c1cc(N2CCOCC2)cc(-c2cccc3c2Oc2ccccc2S3)[nH]1 [Example 4-12, 4-Morpholino-6-(phenoxathiin-4-yl)pyridin-2(1H)-one] | 500 to 2000 |
| O=c1cc(N2CCOCC2)cc(-c2cccc3c2Cc2ccc(NCc4ccc(Cl)nc4)cc2O3)[nH]1 [Example 6, 6-(6-(((6-chloropyridin-3-yl)methyl)amino)-9H-xanthen-1-yl)-4-morpholinopyridin-2(1H)-one] | 500 to 2000 |
| COc1cncc(CNc2ccc3c(c2)Cc2cccc(-c4cc(N5CCOCC5)cc(=O)[nH]4)c2N3C)c1 [Example 7, 6-(7-(((5-Methoxypyridin-3-yl)methyl)amino)-10-methyl-9,10-dihydroacridin-4-yl)-4-morpholinopyridin-2(1H)-one] | 500 to 2000 |
| Ethyl 6-(((6-(4-morpholino- 6-oxo-1,6-dihydropyridin-2- yl)thianthren-2-yl)amino) methyl)picol [Example 1-12-56] | 100 to 500 |

Further lines, results first:

| IC50 [nM] | Compound |
| --- | --- |
| 100 to 500 | O=c1cc(N2CCOCC2)cc(-c2cccc3c2Sc2ccc(N[C@H](CCN4CCOCC4)CN4CCOCC4)cc2S3)[nH]1 [Example 8-1, (R)-6-(7-((1,4-dimorpholinobutan-2-yl)amino)thianthren-1-yl)-4-morpholinopyridin-2(1H)-one] |
| 100 to 500 | CC(CCNc1ccc2c(c1)Sc1cccc(-c3cc(N4CCOCC4)cc(=O)[nH]3)c1S2)N1CCOCC1 (stereo not shown) [Example 8-2, 4-Morpholino-6-(7-((3-morpholinobutyl)amino)thianthren-1-yl)pyridin-2(1H)-one] |
| 500 to 2000 | CC(CN1CCOCC1)C(=O)Nc1ccc2c(c1)Sc1cccc(-c3cc(N4CCOCC4)cc(=O)[nH]3)c1S2 (stereo not shown) [Example 8-3, 2-Methyl-3-morpholino-N-(6-(4-morpholino-6-oxo-1,6-dihydropyridin-2-yl)thianthren-2-yl)propanamide] |
| 100 to 500 | CC(CNc1ccc2c(c1)Sc1cccc(-c3cc(N4CCOCC4)cc(=O)[nH]3)c1S2)CN1CCOCC1 (stereo not shown) [Example 8-4, 6-(7-((2-Methyl-3-morpholinopropyl)amino)thianthren-1-yl)-4-morpholinopyridin-2(1H)-one] |
| 100 to 500 | [N-]=[N+]=NCC(CN1CCOCC1)Nc1ccc2c(c1)Sc1cccc(-c3cc(N4CCOCC4)cc(=O)[nH]3)c1S2 (stereo not shown) [Example 9-1, 6-(7-((1-azide-3-morpholinopropan-2-yl)amino)thianthren-1-yl)-4-morpholinopyridin-2(1H)-one] |
| 100 to 500 | N#CCC(CN1CCOCC1)Nc1ccc2c(c1)Sc1cccc(-c3cc(N4CCOCC4)cc(=O)[nH]3)c1S2 (stereo not shown) [Example 9-2, 4-Morpholino-3-((6-(4-morpholino-6-oxo-1,6-dihydropyridin-2-yl)thianthren-2-yl)amino)butanenitrile] |
| 500 to 2000 | CN(C)CC(CN1CCOCC1)Nc1ccc2c(c1)Sc1cccc(-c3cc(N4CCOCC4)cc(=O)[nH]3)c1S2 (stereo not shown) [Example 9-3, 6-(7-((1-(Dimethylamino)-3-morpholinopropan-2-yl)amino)thianthren-1-yl)-4-morpholinopyridin-2(1H)-one] |
| 100 to 500 | COC[C@H](CN1CCOCC1)Nc1ccc2c(c1)Sc1cccc(-c3cc(N4CCOCC4)cc(=O)[nH]3)c1O2 [Example 10-6, (S)-6-(8-((1-methoxy-3-morpholinopropan-2-yl)amino)phenoxathiin-4-yl)-4-morpholinopyridin-2(1H)-one] |
| < 100 | COC[C@H](CN1CCOCC1)Nc1ccc2c(c1)Sc1cccc(-c3cc(=O)cc(N4CCOCC4)o3)c1S2 [Example 11-3, (S)-2-(7-((1-methoxy-3-morpholinopropan-2-yl)amino)thianthren-1-yl)-6-morpholino-4H-pyran-4-one] |
| 100 to 500 | CC(CN1CCN(C)CC1)Nc1ccc2c(c1)Sc1cccc(-c3cc(=O)cc(N4CCOCC4)o3)c1S2 (stereo not shown) [Example 11-4, 2-(7-((1-(4-Methylpiperazin-1-yl)propan-2-yl)amino)thianthren-1-yl)-6-morpholino-4H-pyran-4-one] |
| 100 to 500 | Cc1cnc(C(CCN(C)C)CNc2ccc3c(c2)Sc2cccc(-c4cc(N5CCOCC5)cc(=O)[nH]4)c2S3)cn1 (stereo not shown) [Example 12-3, 6-(7-((4-(Dimethylamino)-2-(5-methylpyrazin-2-yl)butyl)amino)thianthren-1-yl)-4-morpholinopyridin-2(1H)-one] |
| 100 to 500 | COC[C@H](CN1CCOCC1)Nc1ccc2c(c1)Cc1cccc(-c3cc(N4CCOCC4)cc(=O)[nH]3)c1O2 [Example 12-5, (S)-6-(7-((1-methoxy-3-morpholinopropan-2-yl)amino)-9H-xanthen-4-yl)-4-morpholinopyridin-2(1H)-one] |

tested on: human non-small cell lung cancer cell line NCI-H460; experiment: Cell proliferation inhibition test by sensitivity-enhancing to ionizing radiation (Cell Titer Glo); assay type: cell-based; conditions: Homo sapiens, NCI-H460, 120 h, concentration in which SER became 2; NCI-H460 cells, ionizing radiation 2 Gy, cultured 120 hour
Experimental: A human non-small cell lung cancer cell line NCI-H460 (ATCC company) was adjusted so as to be 2×10^3 cells/mL in a RPMI-1640 medium containing penicillin/streptomycin and FBS having a final concentration of 10%, and this was seeded by 100 μL per well in 96-well CellBIND® plates (Corning International Inc.). After 24 hours, the medium of cells was replaced with 100 μL of a medium including serially diluted liquid of the test compound or DMSO having a final concentration of 0.1%. 30 minutes after the medium was replaced, half of the plates were irradiated with ionizing radiation 2 Gy (Faxitron Bioptics, LLC, RX-650 type). The cells of the plates irradiated with ionizing radiation and the plates not being irradiated with ionizing radiation were cultured at 37° C. for 120 hour in 5% CO2. After a Cell Titer Glo reaction liquid of an equal volume was added to each well, the amount of luminescence was measured, according to the instruction book of Cell Titer Glo (Promega Corporation). Since the amount of luminescence is proportional to the ATP concentration in cells, the amount of luminescence was used as an indicator of the number of viable cells. Sensitivity-enhancing effects (SER) to ionizing radiation by the test compound was calculated by the following equation. SER=(amount of luminescence of wells including DMSO having a final concentration of 0.1% in the plates irradiated with ionizing radiation×amount of luminescence of wells including a compound in the plates not being irradiated with ionizing radiation)/(amount of luminescence of wells including the test compound in the plates irradiated with ionizing radiation×amount of luminescence of wells including DMSO having a final concentration of 0.1% in the plates not being irradiated with ionizing radiation)
SER at each compound concentration was plotted by nonlinear regression fit (FitModel (205)) by a sigmoidal dose-response equation using XLfit software (IDBS), and the concentration (SER2) in which SER became 2 was calculated.

| Compound | SER2 (concentration at which the radiation sensitivity-enhancement ratio reaches 2) [nM] |
| --- | --- |
| CC(CNc1ccc2c(c1)Sc1cccc(-c3cc(N4CCOCC4)cc(=O)[nH]3)c1S2)N1CCOCC1 (racemic) [Example 1-9-2-1, 4-Morpholino-6-(7-((2-morpholinopropyl)amino)thianthren-1-yl)pyridin-2(1H)-one] | 100 to 500 |
| CC(CN1CCOCC1)Nc1ccc2c(c1)Sc1cccc(-c3cc(N4CCOCC4)cc(=O)[nH]3)c1S2 (racemic) [Example 1-13-2-1, 4-Morpholino-6-(7-((1-morpholinopropan-2-yl)amino)thianthren-1-yl)pyridin-2(1H)-one] | 100 to 500 |
| CC(CN1CCN(C)CC1)Nc1ccc2c(c1)Sc1cccc(-c3cc(N4CCOCC4)cc(=O)[nH]3)c1S2 (racemic) [Example 1-13-3-1, 6-(7-((1-(4-Methylpiperazin-1-yl)propan-2-yl)amino)thianthren-1-yl)-4-morpholinopyridin-2(1H)-one] | 100 to 500 |
| O=c1cc(N2CCOCC2)cc(-c2cccc3c2Sc2ccc(NC4CCCC4N4CCOCC4)cc2S3)[nH]1 (racemic) [Example 1-16-1-1, 4-morpholino-6-(7-((2-morpholinocyclopentyl)amino)thianthren-1-yl)pyridin-2(1H)-one] | < 100 |

same assay, conditions: concentration in which SER became 2; NCI-H460 cells, ionizing radiation 2 Gy, cultured 120 hour

| Compound | SER2 (concentration at which the radiation sensitivity-enhancement ratio reaches 2) [nM] |
| --- | --- |
| 6-(7-(((5-Methyl pyridin-2- yl)(1-methyl pyrrolidin-3-yl) methyl)amino)thianthren-1- yl)-4-morpholino pyridin-2 (1H)-one [Example 1-22-9] | < 100 |
